For one data set, the system named is S. aureus. Also on record: method as in 7 sources, one per row (each row's own in cited_ref): ref 39 (a number printed in a supplementary file, which may have a reference list of its own: not looked up in the article's list) ||| ref 40 (a number printed in a supplementary file, which may have a reference list of its own: not looked up in the article's list) ||| ref 41 (a number printed in a supplementary file, which may have a reference list of its own: not looked up in the article's list) ||| ref 42 (a number printed in a supplementary file, which may have a reference list of its own: not looked up in the article's list) ||| ref 43 (a number printed in a supplementary file, which may have a reference list of its own: not looked up in the article's list) ||| ... Particulars: 1 × 10^5 ~ 3.5 × 10^5 cfu/ml, MHB; cited from earlier work.

Another data set concerns P. aeruginosa. Further details: method as in 7 sources, one per row (each row's own in cited_ref): ref 39 (a number printed in a supplementary file, which may have a reference list of its own: not looked up in the article's list) ||| ref 40 (a number printed in a supplementary file, which may have a reference list of its own: not looked up in the article's list) ||| ref 41 (a number printed in a supplementary file, which may have a reference list of its own: not looked up in the article's list) ||| ref 42 (a number printed in a supplementary file, which may have a reference list of its own: not looked up in the article's list) ||| ref 44 (a number printed in a supplementary file, which may have a reference list of its own: not looked up in the article's list) ||| ... Particulars: 1 × 10^5 ~ 3.5 × 10^5 cfu/ml, MHB; cited from earlier work.

In another data set the test system is human red blood cells. Nature of the data set: Hemolytic activity. It is filed as cell-based. Particulars: red cells of human, 18 h. In a few lines:
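Peptides (100 μM down to 0.78 μM) were incubated with 4% final human erythrocytes in PBS for 18 h at 37 °C. Supernatant absorbance at 540 nm after centrifugation was scaled to 1% Triton X-100 (100%) and no peptide (0%); melittin served as positive control; triplicate runs.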

A short description of data set [1]: Maximum soluble concentration / turbidity. It is filed as physicochemical. Particulars: lyophilized peptide reconstructed in PBS at 200-6.25 μM; visible turbidity checked every 12 h for 5 days; at least twice. How it is done: Supplementary Methods Bacteria preparation, Antimicrobial peptides preparation, Minimal-inhibitory-concentration measurements, Hemolysis-activity measurements, Tryptophan fluorescence measurements, Isothermal titration calorimetry measurements, Bacteria membrane ion permeation measurements, Outer-inner membrane permeation, Field-emission scanning electron microscopy and Antimicrobial kinetics were performed as described in Materials and Methods. Liposome (LUV) preparation. Bacterial-membrane-mimic DMPC/DMPG unilamellar vesicles (LUV) and mammalian- membrane-mimic PC/cholesterol vesicles with 100-nm diameters were prepared by extrusion. LiposoFast Liposome Factory Basic unit with stabilizer (Avestin, Ottawa, Canada) was used to extrude liposomes 50 times through a polycarbonate membrane filter (pore diameter, 100 nm; filter diameter, 0.75 inches) (Avestin). […] rac-(1-glycerol)) (sodium salt) (DMPG) (Avanti, Alabama, USA); 1,2-Dimyristoyl-sn-glycero-3-phosphocholine (DMPC) (Avanti); and cholesterol (Sigma, Darmstadt, Germany) were used. For circular dichroism, isothermal titration calorimetry, tryptophan fluorescence, and dynamic light scattering experiments, liposomes were reconstructed and resuspendedwith phosphate-buffered saline (PBS; Welgene Inc, Gyeongsangbuk-do, Korea). For calcein-permeation tests, liposomes were reconstructed with calcein solutions (80 mM, 40 mM, 30 mM, 20 mM, and 10 mM) (Sigma, Darmstadt, Germany), purified with Sephadex-G50 columns (Pharmacia biotech, Stockholm, Sweden), and resuspended with PBS. Maximum-soluble -concentration measurements. […] turbidity with PBS. The lowest concentration of peptide without visible turbidity was determined to be the maximu m soluble concentration. Each experiment was performed at least twice. Circular dichroism (CD) spectrum. DMPC/PG -liposome, PC/cholesterol -liposome, and peptide stock solutions were diluted in PBS. For circular dichroism, PBS with neither liposome nor peptides was also prepared. Liposomes and peptides were mixed to […] Samples were transferred into type J/1 cuvettes (Jasco, Tokyo, Japan). Cuvettes were placed into the J -815 circular -dichroism spectrometer (Jasco, Tokyo, Japan). Measurement parameters were as follows: wavelength, 190 -260 nm; data pitch, 0.2 nm; bandwidth, 1.00 nm; […] Each experiment was performed in triplicate. Data below 197 nm was not analyzed because o f experimental difficulties in obtaining those spectra. Each experiment was performed at least twice. Artificial membrane calcein permeation measurements. Calcein fluorescence was used to measure peptide -induced liposome permeation. Calcein solutions (10 mM, 20 mM, or 60 mM) containing PC/PG liposomes and peptides were diluted in PBS ( ×1, ×2, ×3, ×8). […] Liposome solutions (180 μl) were transferred to wells of black, clear -bottomed 96 -well plates (Costar, New York, USA). Peptide […] Liposome-containing plates and peptide -containing plates were inserted into a Flexstation 3 Multi -Mode Microplate Reader (Molecular Devices, California, USA). Peptide solutions (20 μl) were transferred and mixed with liposome solution automatical ly after 30 sec. […] Measurement parameters were as follows: excitation, 490 nm; emission, 520 nm; temperature, 37 °C. […] was transferred and mixed with the liposome -peptide solu tions automatically after 300 sec to acquire fluorescence at maximum leakage. […] Fluorescence measured between 0 -300 sec after addition of 0 μg/ml peptide was considered the baseline. Each experiment was performed at least twice. Dynamic light scattering (DLS) measurements. Dynamic light scattering was used to measure peptide -induced liposome volume changes. PC/PG -liposome stock solutions and peptides were resuspended in PBS. Liposomes and peptides were mixed to […]

Another data set concerns MDR A. baumannii. Nature of the data set: microbe, parasite or virus in culture. Particulars: for MIC in 0.2% albumin and 0.01% AcOH added CLSI standard condition, MDR A. baumannii: CAMHB plus 0.2% bovine serum albumin and 0.01% acetic acid, values marked * in Table 2; for Minimum inhibitory concentrations, MDR A. baumannii: CLSI broth microdilution, CAMHB with 50 mg/L Ca2+, 10 mg/L Mg2+, 5 × 10^5 CFU/ml, 18 h 37 °C, triplicate, strain ATCC BAA-1605. A digest of the protocol:
(§1)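 MIC was read by eye as the lowest peptide concentration leaving no visible turbidity. Peptide and mid-log cells (final 5 × 10^5 CFU/ml) were combined in cation-adjusted Mueller–Hinton broth containing 50 mg/L calcium and 10 mg/L magnesium and incubated 18 h at 37 °C.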
(In broth dilution the organism is exposed to a series of concentrations in liquid medium.)

The next data set relates to MDR P. aeruginosa. The data set is described as follows: microbe, parasite or virus in culture. Particulars: for MIC in 0.2% albumin and 0.01% AcOH added CLSI standard condition, MDR P. aeruginosa: CAMHB plus 0.2% bovine serum albumin and 0.01% acetic acid, values marked * in Table 2; for Minimum inhibitory concentrations, MDR P. aeruginosa: CLSI broth microdilution, CAMHB with 50 mg/L Ca2+, 10 mg/L Mg2+, 5 × 10^5 CFU/ml, 18 h 37 °C, no visible turbidity, triplicate, strain CCARM 2180. A digest of the protocol:
as §1

A further data set deals with MDR E. faecalis. Nature of the data set: microbe, parasite or virus in culture. Particulars: for MIC in 0.2% albumin and 0.01% AcOH added CLSI standard condition, MDR E. faecalis: CAMHB plus 0.2% bovine serum albumin and 0.01% acetic acid, values marked * in Table 2; for Minimum inhibitory concentrations, MDR E. faecalis: CLSI broth microdilution, CAMHB with 50 mg/L Ca2+, 10 mg/L Mg2+, 5 × 10^5 CFU/ml, 18 h 37 °C, triplicate, strain ATCC 51575. In a few lines: as §1

The next data set relates to MDR S. aureus. Nature of the data set: microbe, parasite or virus in culture. Particulars: for MIC in 0.2% albumin and 0.01% AcOH added CLSI standard condition, MDR S. aureus: CAMHB plus 0.2% bovine serum albumin and 0.01% acetic acid, values marked * in Table 2; for Minimum inhibitory concentrations, MDR S. aureus: CLSI broth microdilution, CAMHB with 50 mg/L Ca2+, 10 mg/L Mg2+, 5 × 10^5 CFU/ml, 18 h 37 °C, triplicate, strain KCCM 40510. A digest of the protocol: as §1

Ends that are not written are not given here. A value given as a limit tells only on which side of the number the result lay.

On to “KFKWWRMLI (not fully specified (C-terminus))”, for which the “MIC (Strain 2), S. aureus ATCC 25923” value in the data set with S. aureus is 1.2 µM. Further, the “MIC (Strain 1), P. aeruginosa H103” value with P. aeruginosa is 2.6 µM.

For the substance “KRRWRIWLV (not fully specified (C-terminus))”, the “MIC (Strain 2), S. aureus ATCC 25923” value in the data set on S. aureus is 1.5 µM. The “MIC (Strain 1), P. aeruginosa H103” value in the data set on P. aeruginosa was 3.0 µM.

As for “RLWWKIWLK (not fully specified (C-terminus))”, the “MIC (Strain 2), S. aureus ATCC 25923” value in the data set on S. aureus was 1.4 µM. Moreover, the “MIC (Strain 1), P. aeruginosa H103” value in the data set on P. aeruginosa is 22.5 µM.

Consider “WKWLKKWIK (not fully specified (C-terminus))”, for which the “MIC (Strain 2), S. aureus ATCC 25923” value with S. aureus is 0.7 µM. The “MIC (Strain 1), P. aeruginosa H103” value with P. aeruginosa was 2.9 µM.

With WLVWVGRRR-NH2 [Hybrid-1], in the data set with human red blood cells, the “Hemolysis percent, 25 μM” value was determined as 0.88 ±0.24%; the “Hemolysis percent, 50 μM” value worked out at 1.09 ±0.32%; the “Hemolysis percent, 100 μM” value is given as 1.40 ±0.08%. Besides, in data set [1], the “Maximum soluble concentration in PBS” value was greater than 200 µM. Besides, in the data set with MDR A. baumannii, the “MIC in 0.2% albumin and 0.01% AcOH added CLSI standard condition, MDR A. baumannii” value was greater than 20 µM; the “Minimum inhibitory concentrations, MDR A. baumannii” value was greater than 20 µM. Further, in the data set on MDR P. aeruginosa, the “MIC in 0.2% albumin and 0.01% AcOH added CLSI standard condition, MDR P. aeruginosa” value was greater than 20 µM; the “Minimum inhibitory concentrations, MDR P. aeruginosa” value is greater than 20 µM. For the same substance, in the data set with MDR E. faecalis, the “MIC in 0.2% albumin and 0.01% AcOH added CLSI standard condition, MDR E. faecalis” value was greater than 20 µM; the “Minimum inhibitory concentrations, MDR E. faecalis” value is greater than 20 µM. Further, in the data set on MDR S. aureus, the “MIC in 0.2% albumin and 0.01% AcOH added CLSI standard condition, MDR S. aureus” value is greater than 20 µM; the “Minimum inhibitory concentrations, MDR S. aureus” value was greater than 20 µM.

On to WLVWVWRRR-NH2 [Hybrid-3], for which, in the data set on human red blood cells, the “Hemolysis percent, 25 μM” value is listed as 4.26 ±0.63%; the “Hemolysis percent, 50 μM” value is on record as 5.14 ±0.19%; the “Hemolysis percent, 100 μM” value is 7.17 ±1.09%. Besides, in data set [1], the “Maximum soluble concentration in PBS” value is greater than 200 µM. Further, in the data set on MDR A. baumannii, the “MIC in 0.2% albumin and 0.01% AcOH added CLSI standard condition, MDR A. baumannii” value stood at 0.63 µM; the “Minimum inhibitory concentrations, MDR A. baumannii” value stood at 2.5 µM. Moreover, in the data set with MDR P. aeruginosa, the “MIC in 0.2% albumin and 0.01% AcOH added CLSI standard condition, MDR P. aeruginosa” value is greater than 20 µM; the “Minimum inhibitory concentrations, MDR P. aeruginosa” value was greater than 20 µM. In the data set on MDR E. faecalis, the “MIC in 0.2% albumin and 0.01% AcOH added CLSI standard condition, MDR E. faecalis” value worked out at 2.5 µM; the “Minimum inhibitory concentrations, MDR E. faecalis” value worked out at 10 µM. Besides, in the data set on MDR S. aureus, the “MIC in 0.2% albumin and 0.01% AcOH added CLSI standard condition, MDR S. aureus” value worked out at 5 µM; the “Minimum inhibitory concentrations, MDR S. aureus” value was 10 µM.

For the substance WRLWRWIVR-NH2 [HLWCopW29-3], in the data set on human red blood cells, the “Hemolysis percent, 25 μM” value is 1.10 ±0.14%; the “Hemolysis percent, 50 μM” value was 1.37 ±0.02%; the “Hemolysis percent, 100 μM” value was 4.45 ±0.23%. In addition, the “Maximum soluble concentration in PBS” value in data set [1] was greater than 200 µM. Moreover, the “MIC in 0.2% albumin and 0.01% AcOH added CLSI standard condition, MDR A. baumannii” value in the data set on MDR A. baumannii was 20 µM. Also, in the data set on MDR P. aeruginosa, the “MIC in 0.2% albumin and 0.01% AcOH added CLSI standard condition, MDR P. aeruginosa” value is greater than 20 µM; the “Minimum inhibitory concentrations, MDR P. aeruginosa” value was greater than 20 µM. Further, the “MIC in 0.2% albumin and 0.01% AcOH added CLSI standard condition, MDR E. faecalis” value in the data set on MDR E. faecalis turned out to be 20 µM. Moreover, in the data set with MDR S. aureus, the “MIC in 0.2% albumin and 0.01% AcOH added CLSI standard condition, MDR S. aureus” value was found to be 20 µM.

The values above are taken from article PMC9643456, “Matching amino acids membrane preference profile to improve activity of antimicrobial peptides” (Communications Biology, 2022).
